Data from patent US9012443B2 (Amgen Inc., priority 2011, dated 2015).

Assays:
[1] = biological target: T1, Nav 1.7 (Homo sapiens (Human), UniProt Q15858); experiment: Nav 1.7 IWQ in vitro assay (IonWorks Quattro population patch-clamp); format: cell-based; settings: for inhibition at […]: read-out: Nav 1.7 IWQ percent inhibition at […], read-out: Nav 1.7 IWQ percent inhibition at 4.9 μM; for IC50: 293 cells stably transfected with Nav 1.7
Procedure: Nav 1.7 or Nav 1.5 IWQ In Vitro Assay
293 Cells stably transfected with either Nav 1.7 or Nav 1.5 were recorded in population patch-clamp mode with the IonWorks® Quattro automated electrophysiology system in accordance with the manufacturer's specifications (Molecular Devices, LLC, Sunnyvale, Calif.). Sodium channel currents were measured in response to a train of depolarizations that induced successively greater inactivation.
Cells were then left unclamped for a period of 3 to 8 minutes while a single concentration of test compound was added. Cells were then reclamped and put through the same voltage protocol. Current at the end of the 26th pulse to −20 mV was subtracted from the peak current evoked by the 26th pulse to −20 mV to correct for leak current. Percent block was calculated for each concentration in duplicate, and IC50 curves were fitted to percent block as a function of concentration.

[2] = biological target: T1, Nav 1.7; experiment: Nav 1.7 in vitro PX assay (PatchXpress whole cell voltage clamp); format: cell-based; settings: 293 cells, human Nav1.7, partially inactivated state; read-out: Nav1.7 PX IC50 IP
Method in brief: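 HEK293 cells stably expressing human Nav1.7, whole-cell voltage clamp on PatchXpress, held at potential giving 20–50% inactivation; current elicited by 20 msec pulse to −10 mV.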

[3] = first part of table, read-out: Nav 1.7 IWQ IC50
[4] = second part of table, read-out: Nav1.7 IWQ IC50 IP

T1 sequence (Q15858 whole entry): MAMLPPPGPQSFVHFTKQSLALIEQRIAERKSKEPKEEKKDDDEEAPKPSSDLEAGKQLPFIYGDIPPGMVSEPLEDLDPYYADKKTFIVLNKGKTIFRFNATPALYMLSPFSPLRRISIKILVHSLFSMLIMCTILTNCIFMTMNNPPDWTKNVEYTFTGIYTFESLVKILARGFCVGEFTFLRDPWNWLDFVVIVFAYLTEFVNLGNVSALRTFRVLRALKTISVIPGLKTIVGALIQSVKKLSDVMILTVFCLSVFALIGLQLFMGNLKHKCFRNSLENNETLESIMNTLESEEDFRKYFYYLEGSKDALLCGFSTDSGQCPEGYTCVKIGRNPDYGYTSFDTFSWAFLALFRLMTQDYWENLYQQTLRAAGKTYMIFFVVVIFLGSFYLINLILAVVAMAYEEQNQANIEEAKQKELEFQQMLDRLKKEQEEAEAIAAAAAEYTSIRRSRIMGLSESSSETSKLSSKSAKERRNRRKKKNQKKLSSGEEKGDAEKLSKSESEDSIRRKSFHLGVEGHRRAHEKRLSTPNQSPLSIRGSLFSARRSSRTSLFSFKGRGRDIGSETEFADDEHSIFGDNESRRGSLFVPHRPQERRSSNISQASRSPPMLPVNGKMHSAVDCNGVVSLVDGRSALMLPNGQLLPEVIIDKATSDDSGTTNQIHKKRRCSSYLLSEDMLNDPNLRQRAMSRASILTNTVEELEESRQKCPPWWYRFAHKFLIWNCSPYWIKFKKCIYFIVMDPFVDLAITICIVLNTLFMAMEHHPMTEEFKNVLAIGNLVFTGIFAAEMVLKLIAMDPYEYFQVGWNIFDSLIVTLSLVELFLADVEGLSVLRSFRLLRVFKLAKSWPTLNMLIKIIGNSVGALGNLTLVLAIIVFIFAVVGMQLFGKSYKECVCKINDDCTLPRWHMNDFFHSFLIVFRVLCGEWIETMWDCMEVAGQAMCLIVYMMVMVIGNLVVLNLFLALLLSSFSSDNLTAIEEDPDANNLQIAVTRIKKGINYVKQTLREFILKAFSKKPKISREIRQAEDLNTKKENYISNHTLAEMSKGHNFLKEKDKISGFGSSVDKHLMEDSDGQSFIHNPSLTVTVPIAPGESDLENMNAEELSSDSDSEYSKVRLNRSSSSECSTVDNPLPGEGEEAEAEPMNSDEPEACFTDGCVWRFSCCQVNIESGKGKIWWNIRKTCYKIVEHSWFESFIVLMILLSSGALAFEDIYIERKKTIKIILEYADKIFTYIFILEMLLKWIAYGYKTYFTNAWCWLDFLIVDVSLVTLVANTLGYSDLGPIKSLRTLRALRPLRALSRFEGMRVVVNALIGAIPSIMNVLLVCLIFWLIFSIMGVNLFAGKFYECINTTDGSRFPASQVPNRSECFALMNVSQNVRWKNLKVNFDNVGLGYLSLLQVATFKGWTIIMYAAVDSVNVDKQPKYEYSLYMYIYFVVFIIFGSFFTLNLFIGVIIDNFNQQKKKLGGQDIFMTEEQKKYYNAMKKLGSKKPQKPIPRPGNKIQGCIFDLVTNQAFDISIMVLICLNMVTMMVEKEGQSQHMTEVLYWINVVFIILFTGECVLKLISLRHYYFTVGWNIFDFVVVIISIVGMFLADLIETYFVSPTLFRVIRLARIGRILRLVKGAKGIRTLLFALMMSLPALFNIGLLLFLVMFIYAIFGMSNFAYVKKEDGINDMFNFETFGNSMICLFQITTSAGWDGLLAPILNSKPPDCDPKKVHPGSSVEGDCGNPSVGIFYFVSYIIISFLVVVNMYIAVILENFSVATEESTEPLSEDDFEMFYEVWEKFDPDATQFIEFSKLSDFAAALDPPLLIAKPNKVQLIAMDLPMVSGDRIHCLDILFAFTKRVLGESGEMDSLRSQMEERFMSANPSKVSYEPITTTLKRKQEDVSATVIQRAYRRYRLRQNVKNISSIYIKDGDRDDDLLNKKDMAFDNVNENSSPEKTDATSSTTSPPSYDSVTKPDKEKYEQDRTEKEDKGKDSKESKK

| Compound | IC50 [1, 3] [nM] | Nav1.7 Single Point Data IWQ (at […]) (%) [1] [%] | other results |
| --- | --- | --- | --- |
| COc1cc(Cl)ccc1-c1cccc2cc(S(=O)(=O)Nc3cc(C)on3)ccc12 [Example 44] | – | – | inhibition at […] [1]: 22.1% |
| O=S(=O)(Nc1ncns1)c1ccc2c(N3CCOC(c4ccccc4)C3)cccc2c1 (racemic) [Example 14 (mixture of isomers)] | 300 | – | – |
| COc1cc(C(F)(F)F)ccc1-c1nccc2cc(S(=O)(=O)NC(C)=O)ccc12 [Example 314, N-((1-(2-METHOXY-4-(TRIFLUOROMETHYL)PHENYL)ISOQUINOLIN-6-YL)SULFONYL)ACETAMIDE] | – | 39 | IC50 [1, 4]: > 10000 nM |
| O=S(=O)(Nc1ncns1)c1ccc2c(-c3ccc(C(F)(F)F)cc3-c3cn[nH]c3)cccc2c1 [Example 21] | 20 | – | – |
| COc1cc(C(F)(F)F)ccc1-c1nccc2cc(S(=O)(=O)Nc3cc(C(F)(F)F)ncn3)ccc12 [Example 496, 1-(2-METHOXY-4-(TRIFLUOROMETHYL)PHENYL)-N-(6-(TRIFLUOROMETHYL)PYRIMIDIN-4-YL)ISOQUINOLINE-6-SULFONAMIDE] | – | 24.7 | – |
| O=S(=O)(Nc1ncns1)c1ccc2c(-c3ccc(C(F)(F)F)cc3O)nccc2c1 [Example 58, 1-(2-HYDROXY-4-(TRIFLUOROMETHYL)PHENYL)-N-(1,2,4-THIADIAZOL-5-YL)ISOQUINOLINE-6-SULFONAMIDE] | 600 | – | – |
| Cc1cnc(OCc2ccccc2)c(-c2nccc3cc(S(=O)(=O)Nc4nccs4)ccc23)c1 [Example 380, 1-(2-(BENZYLOXY)-5-METHYLPYRIDIN-3-YL)-N-(THIAZOL-2-YL)ISOQUINOLINE-6-SULFONAMIDE] | – | 40 | – |
| COc1cc(C(F)(F)F)ccc1-c1ncnc2cc(S(=O)(=O)NC3=NCCS3)ccc12 [Example 520, N-(4,5-DIHYDROTHIAZOL-2-YL)-4-(2-METHOXY-4-(TRIFLUOROMETHYL)PHENYL)QUINAZOLINE-7-SULFONAMIDE] | – | <20 | – |
| O=S(=O)(Nc1ncns1)c1ccc2c(-c3ccncc3)cccc2c1 [Example 7] | 7760 | – | – |
| COc1cc(C(F)(F)F)ccc1-c1cccc2cc(S(=O)(=O)Nc3nccs3)ccc12 [Example 41] | 290 | – | – |
| O=S(=O)(Nc1ccncn1)c1ccc2c(OCc3ccc(N4CCOCC4)cc3)nccc2c1 [Example 304, 1-((4-MORPHOLINOBENZYL)OXY)-N-(PYRIMIDIN-4-YL)ISOQUINOLINE-6-SULFONAMIDE] | – | 32 | IC50 [1, 4]: > 10000 nM |
| COc1cnccc1NS(=O)(=O)c1ccc2c(-c3ccc(C(F)(F)F)cc3Cl)nccc2c1 [Example 52, 1-(2-CHLORO-4-(TRIFLUOROMETHYL)PHENYL)-N-(3-METHOXYPYRIDIN-4-YL)ISOQUINOLINE-6-SULFONAMIDE] | – | – | inhibition at […] [1]: 16% |
| O=S(=O)(Nc1nccs1)c1ccc2c(N3CCCC3c3ccccc3)cccc2c1 (centres unmarked) [Example 80] | 1200 | – | – |
| COc1nccc(NS(=O)(=O)c2ccc3c(-c4ccc(C(F)(F)F)cc4OC)nccc3c2)n1 [Example 313, 1-(2-METHOXY-4-(TRIFLUOROMETHYL)PHENYL)-N-(2-METHOXYPYRIMIDIN-4-YL)ISOQUINOLINE-6-SULFONAMIDE] | – | 39 | IC50 [1, 4]: > 10000 nM |
| COc1ncccc1-c1nccc2cc(S(=O)(=O)Nc3ccncn3)ccc12 [Example 144, 1-(2-METHOXYPYRIDIN-3-YL)-N-(PYRIMIDIN-4-YL)ISOQUINOLINE-6-SULFONAMIDE] | – | – | IC50 [1, 4]: 6730 nM |
| O=S(=O)(Nc1ccncn1)c1ccc2c(-c3ccc(C(F)(F)F)cc3C3=CCNCC3)nccc2c1 [Example 69, N-(PYRIMIDIN-4-YL)-1-(2-(1,2,3,6-TETRAHYDROPYRIDIN-4-YL)-4-(TRIFLUOROMETHYL)PHENYL)ISOQUINOLINE-6-SULFONAMIDE 2,2,2-TRIFLUOROACETATE] | 60 | – | – |
| CN1CC=C(c2cc(C(F)(F)F)ccc2-c2cccc3cc(S(=O)(=O)Nc4nccs4)ccc23)CC1 [Example 78] | 90 | – | – |
| Cc1cc(Cl)ccc1-c1nccc2cc(S(=O)(=O)Nc3ncns3)ccc12 [Example 62] | 90 | – | – |
| COc1c(-c2nccc3cc(S(=O)(=O)Nc4ccncn4)ccc23)cccc1C(F)(F)F [Example 152, 1-(2-METHOXY-3-(TRIFLUOROMETHYL)PHENYL)-N-(PYRIMIDIN-4-YL)ISOQUINOLINE-6-SULFONAMIDE] | – | – | IC50 [1, 4]: 6810 nM |
| N#Cc1cccc2cc(S(=O)(=O)Nc3ncns3)ccc12 [Example 317] | – | 30 | IC50 [1, 4]: > 10000 nM |
| Cc1ccc(-c2cccc3cc(S(=O)(=O)Nc4ncns4)ccc23)c(Cl)c1 [Example 6] | 340 | – | – |

| Compound | IC50 [1, 3] [nM] | Nav1.7 Single Point Data IWQ (at […]) (%) [1] [%] | other results |
| --- | --- | --- | --- |
| O=S(=O)(Nc1nccs1)c1ccc2c(-c3ccc(C(F)(F)F)cc3-c3ccncc3)nccc2c1 [Example 71, 1-(2-(PYRIDIN-4-YL)-4-(TRIFLUOROMETHYL)PHENYL)-N-(THIAZOL-2-YL)ISOQUINOLINE-6-SULFONAMIDE] | 20 | – | – |
| O=S(=O)(Nc1ncns1)c1ccc2c(-c3ccc(Cl)cc3OC(F)F)cccc2c1 [Example 24] | 30 | – | – |
| CN1CC(n2nccc2-c2cc(C(F)(F)F)ccc2-c2cccc3cc(S(=O)(=O)Nc4nccs4)ccc23)C1 [Example 82] | 70 | – | – |
| Cc1ccc2c(cnn2C)c1-c1nccc2cc(S(=O)(=O)Nc3ccncn3)ccc12 [Example 309] | – | 27 | IC50 [1, 4]: > 10000 nM |
| CC1CN(c2cccc(F)c2)CCN1c1nccc2cc(S(=O)(=O)Nc3ccncn3)ccc12 (centres unmarked) [Example 403, 1-(4-(3-FLUOROPHENYL)-2-METHYLPIPERAZIN-1-YL)-N-(PYRIMIDIN-4-YL)ISOQUINOLINE-6-SULFONAMIDE] | – | 33.5 | – |
| O=S(=O)(Nc1nccs1)c1ccc2c(-c3ccc(C(F)(F)F)cc3-c3ccnn3C3CNC3)cccc2c1 [Example 81] | 40 | – | – |
| CC1CN(c2cccc3cc(S(=O)(=O)Nc4ncns4)ccc23)CCO1 (centres unmarked) [Example 16] | 2370 | – | – |
| COc1ccncc1-c1nccc2cc(S(=O)(=O)Nc3ccncn3)ccc12 [Example 170, 1-(4-METHOXYPYRIDIN-3-YL)-N-(PYRIMIDIN-4-YL)ISOQUINOLINE-6-SULFONAMIDE] | – | – | IC50 [1, 4]: 2650 nM |
| CN(C)C(=O)C1CN(c2cccc3cc(S(=O)(=O)Nc4ncns4)ccc23)CCO1 (centres unmarked) [Example 19] | 1180 | – | – |
| Cn1nccc1-c1cc(C(F)(F)F)ccc1-c1cccc2cc(S(=O)(=O)Nc3ccncn3)ccc12 [Example 74] | 80 | – | – |
| COc1cc(C(F)(F)F)ccc1-c1nccc2cc(S(=O)(=O)n3ccc(N)n3)ccc12 [Example 390, 1-((1-(2-METHOXY-4-(TRIFLUOROMETHYL)PHENYL)ISOQUINOLIN-6-YL) SULFONYL)-1H-PYRAZOL-3-AMINE] | – | 19.8 | – |
| Cc1nsc(NS(=O)(=O)c2ccc3c(-c4ccc(Cl)cc4C)nccc3c2)n1 [Example 356] | – | 27 | – |
| O=S(=O)(Nc1ccncn1)c1ccc2c(-c3cccc4cc[nH]c34)nccc2c1 [Example 434, 1-(1H-INDOL-7-YL)-N-(PYRIMIDIN-4-YL)ISOQUINOLINE-6-SULFONAMIDE] | – | 20.0 | – |
| COc1cc(-c2ccncc2)ccc1-c1nccc2cc(S(=O)(=O)Nc3ccncn3)ccc12 [Example 451, 1-(2-METHOXY-4-(PYRIDIN-4-YL)PHENYL)-N-(PYRIMIDIN-4-YL)ISOQUINOLINE-6-SULFONAMIDE] | – | 27.5 | – |
| O=S(=O)(Nc1nccs1)c1ccc2c(N3CCN(c4ccc(Cl)c(Cl)c4)CC3)nccc2c1 [Example 247, 1-(4-(3,4-DICHLOROPHENYL)PIPERAZIN-1-YL)-N-(THIAZOL-2-YL)ISOQUINOLINE-6-SULFONAMIDE] | – | 35 | – |
| COC(=O)C1CN(c2cccc3cc(S(=O)(=O)Nc4ncns4)ccc23)CCO1 (centres unmarked) [Example 17, METHYL 4-(6-(N-(1,2,4-THIADIAZOL-5-YL)SULFAMOYL)NAPHTHALEN-1-YL)MORPHOLINE-2-CARBOXYLATE] | 4560 | – | – |
| COc1cc(C(F)(F)F)ccc1-c1c(O)ncc2cc(S(=O)(=O)Nc3nccs3)ccc12 [Example 545, 3-HYDROXY-4-(2-METHOXY-4-(TRIFLUOROMETHYL)PHENYL)-N-(THIAZOL-2-YL)ISOQUINOLINE-7-SULFONAMIDE] | – | 23.7 | – |
| N#CCOc1cc(Cl)ccc1-c1nccc2cc(S(=O)(=O)Nc3ncns3)ccc12 [Example 404, 1-(4-CHLORO-2-(CYANOMETHOXY)PHENYL)-N-(1,2,4-THIADIAZOL-5-YL)ISOQUINOLINE-6-SULFONAMIDE 2,2,2-TRIFLUOROACETATE] | – | – | IC50 [2]: 428 nM |
| COc1cc(-c2cncc(C)c2)ccc1-c1nccc2cc(S(=O)(=O)Nc3ccncn3)ccc12 [Example 478, 1-(2-METHOXY-4-(5-METHYLPYRIDIN-3-YL)PHENYL)-N-(PYRIMIDIN-4-YL)ISOQUINOLINE-6-SULFONAMIDE] | – | – | IC50 [2]: 3640 nM |
| COc1cc(-c2cccc(F)c2)c(Cl)cc1-c1nccc2cc(S(=O)(=O)Nc3ncns3)ccc12 [Example 331, 1-(2-CHLORO-3′-FLUORO-5-METHOXY-[1,1′-BIPHENYL]-4-YL)-N-(1,2,4-THIADIAZOL-5-YL)ISOQUINOLINE-6-SULFONAMIDE] | – | – | IC50 [2]: 23 nM |
| COc1cc(-c2ccc(C#N)cc2)ccc1-c1nccc2cc(S(=O)(=O)Nc3ccncn3)ccc12 [Example 455, 1-(4′-CYANO-3-METHOXY-[1,1′-BIPHENYL]-4-YL)-N-(PYRIMIDIN-4-YL)ISOQUINOLINE-6-SULFONAMIDE] | – | – | IC50 [2]: 904 nM |
